Marks after values point to notes of the source that are not given here.
System: MTX-naïve adult patients with active, early RA (<3 years)
Assay: Study J (adalimumab 40 mg eow + MTX vs adalimumab alone vs MTX alone, 2 years): ACR20/50/70/90 response and Major Clinical Response
Format: in vivo, human
Conditions: for Major Clinical Response (ACR70 for ≧6 continuous months): over 2 years
Experimental: This study was a 2-year, double-blind, active-comparator-controlled Phase III study conducted at 149 sites in North America, Europe, and Australia. […] MTX-naïve adult patients with active, early RA (<3 years) were included in the study. Further inclusion criteria included: SJC≧8 and TJC≧10; ESR≧28 mm/hr or CRP≧1.5 mg/dL; and RF-positivity or at least one joint erosion. […] MTX dosages were rapidly optimized to a maximum of 20 mg weekly.
The co-primary endpoints, comparing MTX alone with the combination at 1 year, were the ACR50 response (using non-responder imputation), and inhibition of radiographic progression, as measured by change in total Sharp score (TSS). In this study, the term “Major Clinical Response” (MCR) meant a continuous ACR70 response for 6 or more consecutive months.
The results of this study were evaluated using multiple criteria for clinical remission. This study (Study J) was a 2-year, double-blind, Phase III study.
Secondary endpoints included DAS28<2.6 at year 1 and Major Clinical Response (MCR=ACR70 response for ≧6 continuous months during a 2-year period).
Study J was a 2-year, double-blind, Phase III study. […] MTX dosages were rapidly optimized to a maximum of 20 mg weekly. Mean changes in total Sharp score (TSS) were measured for patients who achieved American College of Rheumatology (ACR) response (ACR20, ACR50, and ACR70), as well as clinical remission by Disease Activity Score 28 (DAS28<2.6).
At 1 and 2 years, the American College of Rheumatology (ACR) responses (ACR20, ACR50, and ACR70), the Disease Activity Score 28 (DAS28), and the change (Δ) in Total Sharp Score (TSS) were determined for all patients. Results were analyzed for the intention-to-treat (ITT) population using imputation for missing data. Clinical remission was defined as DAS28<2.6. The mean ΔTSS values at 1 year and 2 years (N=791) were determined for patients in each ACR response category (ACR20/50/70) and for patients with DAS28<2.6
Patients in the Ada+MTX and the MTX arms were classified according to level of clinical response (non-responder (<ACR20), ACR20, ACR50, or ACR70) and radiographic progression (Yes or No (ΔTSS≦0.5)). The ΔTSS was analyzed overall, and for ACR subgroups. This included determination of mean ΔTSS and probability plots. Analyses used observed data from patients completing 6 months or 2 years of treatment (no imputation).

[1] = 6 months, completers, observed data
[2] = week 52 (1 year), non-responder imputation

For `CN(Cc1cnc2nc(N)nc(N)c2n1)c1ccc(C(=O)N[C@@H](CCC(=O)O)C(=O)O)cc1` [mtx alone, methotrexate], the ACR70 (2 years, completers, observed data) was 43%, the ACR20 [1] was 79.3% and the ACR50 [1] was 51.6%. The ACR70 [1] was 28.6%, the “Major Clinical Response (ACR70 for ≧6 continuous months)” value was 27 % of patients and the ACR70 (week 52 (1 year)) was 28 % of patients. For the same molecule, the ACR90 (week 52 (1 year)) was 13 % of patients, the ACR20 [2] was 63# % of patients and the ACR50 [2] was 46 % of patients. For the same molecule, the ACR20 (week 52 (1 year), non-responder imputation, listed as MTX alone) was 63 % of patients, the ACR20 (week 104 (2 years)) was 56 % of patients and the ACR50 (week 104 (2 years)) was 43 % of patients. For the same molecule, the ACR70 (week 104 (2 years)) was 28 % of patients and the ACR90 (week 104 (2 years)) was 13 % of patients.

In the case of “adalimumab: human anti-TNF mAb (HUMIRA, Abbott Laboratories), described in U.S. Pat. No. 6,090,382 as D2E7”, the “Major Clinical Response (ACR70 for ≧6 continuous months)” value is reported as 25 % of patients, the ACR70 (week 52 (1 year)) is reported as 26 % of patients and the ACR90 (week 52 (1 year)) is reported as 8 % of patients. The ACR20 [2] was 54 % of patients, the ACR50 [2] was 42 % of patients and the ACR20 (week 104 (2 years)) was 50 % of patients. The ACR50 (week 104 (2 years)) was 37 % of patients, the ACR70 (week 104 (2 years)) was 28 % of patients and the ACR90 (week 104 (2 years)) was 9 % of patients.
